Four molecules from article PMC8826081, “Three-Carbon Linked Dihydroartemisinin-Isatin Hybrids: Design, Synthesis and Their Antiproliferative Anticancer Activity” (Frontiers in Pharmacology, 2022) can be followed below.

The test system of data set [1] is A549/DOX (doxorubicin-resistant A549 cells). The experiment in a line: MTT antiproliferative activity against doxorubicin-resistant A549. Format: cell-based. The following applies: for IC50: Homo sapiens, MTT assay, doxorubicin-resistant A549 cells. From the text: (§1) 3-(4,5-dimethylthiazol-2-yl)-2,5-diphenyltetrazolium bromide (MTT) assay was used to determined the antiproliferative activity of dihydroartemisinin-isatin hybrids 5a-e and 6a-j with three-carbon linker against A549, multidrug-resistant A549/DOX and A549/DDP lung cancer cell lines as well as cytotoxicity towards normal lung epithelial cell line (BEAS-2B). The inhibitory effects were expressed in terms of half maximal inhibitory concentration (IC50) values.
(§2) A549, A549/DOX, and A549/DDP lung cancer cells (2×10^3) were plated in each well of a 96-well plate and were allowed to adhere and spread for 24 h. The […] were added to a final concentration of 100 µM, and the cells were cultured for 24 h at 37 °C. 3-(4,5-dimethyl-2-thiazolyl)-2,5-diphenyltetrazolium bromide (MTT) solution (10 µL) was added to each well, and the cultures were incubated for an additional 4 h. A further 100 µL of […] was added and incubation continued overnight. The absorbance at 540 nm was determined in each well with a 96-well plate reader. The growth of the treated cells was compared with that of untreated cells.
A general note: Tetrazolium dyes change colour on reduction, which living cells bring about.

Data set [2] is described as follows: Metabolic stability in human liver microsomes. The class given is in vitro ADME. The following applies: in vitro stability. A general note: Liver microsomes are vesicles of endoplasmic reticulum, rich in cytochrome P450 enzymes.
Data set [3] is described as follows: Metabolic stability in mouse liver microsomes. The class given is in vitro ADME. The following applies: in vitro stability.
Data set [4] relates to A549/DDP (cisplatin-resistant A549 cells). The experiment in a line: MTT antiproliferative activity against cisplatin-resistant A549. Format: cell-based. The note with it: for IC50: Homo sapiens, MTT assay, cisplatin-resistant A549 cells.
Source text: as §1, §2

For a further data set, the system named is A549 lung cancer cells. The experiment in a line: MTT antiproliferative activity against A549. The class given is cell-based. The following applies: Homo sapiens; MTT assay, drug-sensitive A549.
Source text: as §1, §2

Data set [5] concerns A549, A549/DOX and A549/DDP lung cancer cell lines. The experiment in a line: MTT antiproliferative activity, summarised over the three lung cancer cell lines. The class given is cell-based. The note with it: for IC50: MTT assay, span of values over the three lung cancer cell lines, read-out: IC50 (range over A549, A549/DOX and A549/DDP).
Source text: as §1, §2

A short description of data set [6]: Pharmacokinetic properties in CD-1 mice. The class given is in vivo. The note with it: mouse, plasma. The procedure:
CD-1 mice model was administered with single intravenous […]) dose of 30 mg/kg to test the pharmacokinetic properties of hybrid 6a, e.
CD-1 mice mice (20-25 g) were used in the pharmacokinetic study, and each treatment group had 3 mice which were dosed with […] suspension at 30 mg/kg by single intravenous (iv) administration. Compounds were suspended in 0.5% CMC for iv, and blood was collected from the jugular vein of each mouse at the following time points: 0.25, 0.5, 1, 2, 4, 6, 8 and 24 h after […] administration. Total area under the concentration time curve (AUC), the elimination half-time (t1/2), the peak concentration (Cmax) and the time to reach peak concentration (Tmax) of samples were determined directly from the experimental data using WinNonlin V6.2.1.

The nature of the next data set: in vitro. The note with it: human. The procedure: as §1
(§3) The compounds were dissolved in DMSO with concentrations from 1024 to 1 μg/mL. The NIH/3T3 cells were maintained in culture medium at 37 °C under 5% CO2 atmosphere. Cells were seeded in 96-well plates (1×10^4 cell per well) and allowed to recover for 24 h. After 72 h of exposure, cells were harvested and cell viability was assessed by MTT assay. The CC50 values were calculated by Bliss analysis.

The test system of data set [7] is BEAS-2B normal lung epithelial cell line. The experiment in a line: MTT cytotoxicity towards normal lung epithelial cells. The following applies: IC50(BEAS-2B)/IC50(A549). The procedure: as §1, §3
Where [8] appears, read: single intravenous dose of 30 mg/kg.

The bioavailability is dose-corrected exposure relative to a reference, in per cent. As usually defined, the AUC is concentration integrated over time. Low readings indicate less exposure, high ones more exposure. The Cmax is the maximum level reached in the sampled fluid or tissue. Broadly, the clearance is the volume of plasma or blood freed of the substance per unit of time. Read a high clearance as a high capacity for elimination. As a reminder, the half-life is how long it takes for the measured level to halve. By Tmax is commonly meant the time at which the peak concentration occurs. Turning to `C[C@@H]1CC[C@H]2[C@@H](C)C(OCCCN3C(=O)C(=NO)c4ccccc43)O[C@@H]3O[C@@]4(C)CC[C@@H]1[C@]32OO4` (stereo partly drawn) [6a, 3-(hydroxyimino)-1-(3-(((3R,5aS,6R,8aS,9R,12R,12aR)-3,6,9-trimethyldecahydro-12H-3,12-epoxy[1,2]dioxepino[4,3-i]isochromen-10-yl)oxy)propyl)indolin-2-one], in data set [1], the IC50 came to 7.35 µM and the “RI1 (Resistance index: IC50(A549/DOX)/IC50(A549))” value stood at 1.28. Moreover, in [2], the “Liver microsomes Human” value was 62%. Further, the “Liver microsomes Mouse” value in data set [3] is listed as 70%. In data set [4], this molecule yielded an IC50 of 9.84 µM. Further, the IC50 in the data set on A549 lung cancer cells was 5.72 µM. The IC50 in [5] was in the range of 5.72 to 9.84 µM. The “times superior to cisplatin and doxorubicin” value in data set [5] (against multidrug-resistant A549/DOX and A549/DDP) is recorded as 1.5–10.8 times. Moreover, the “RI (drug resistance index: IC50(MDR A549)/IC50(A549))” value in [5] (span over RI1 and RI2) is 1.03–1.66. Also, in [6] (30 mg/kg, read-out: F (bioavailability)), the bioavailability was determined as 39.7%. Besides, in [6] (setting [8]), the AUC was 2350 ng·h/mL, the Cmax came to 18.9 µM, the clearance is 62.3 mL/min/kg and the half-life was 3.1 h. For the same molecule, the Tmax in [6] (single intravenous dose of 30 mg/kg, read-out: tmax (peak time) (converted)) is 0.267 h. Also, the IC50 in the data set “in vitro” is greater than 100 µM. Also, in data set [7], the “SI (Selectivity index: IC50(BEAS-2B)/IC50(A549))” value is listed as greater than 17.4.

On to `C[C@H]1[C@@H](O)O[C@@H]2O[C@@]3(C)CC[C@H]4[C@H](C)CC[C@@H]1[C@@]24OO3` [DHA, Dihydroartemisinin], for which the IC50 was 88 µM in data set [1]; 75.9 µM in data set [4]; 69.4 µM with A549 lung cancer cells; 69.4 to 88 µM in [5]; greater than 100 µM in the data set “in vitro”. In [1], the “RI1 (Resistance index: IC50(A549/DOX)/IC50(A549))” value was 1.27. The “RI2 (Resistance index: IC50(A549/DDP)/IC50(A549))” value in [4] was 1.09. The “SI (Selectivity index: IC50(BEAS-2B)/IC50(A549))” value in [7] is greater than 1.4.

Consider `C[C@@H]1CC[C@H]2[C@@H](C)C(OCCCN3C(=O)C(=NO)c4cc(Cl)ccc43)O[C@@H]3O[C@@]4(C)CC[C@@H]1[C@]32OO4` (stereo partly drawn) [6f, 5-chloro-3-(hydroxyimino)-1-(3-(((3R,5aS,6R,8aS,9R,12R,12aR)-3,6,9-trimethyldecahydro-12H-3,12-epoxy[1,2]dioxepino[4,3-i]isochromen-10-yl)oxy)propyl)indolin-2-one], for which the IC50 in data set [1] was 26.9 µM; in [4], 31.9 µM; with A549 lung cancer cells, 24.7 µM; in “in vitro”, greater than 100 µM. In addition, the “RI1 (Resistance index: IC50(A549/DOX)/IC50(A549))” value in [1] worked out at 1.08. In addition, the “RI2 (Resistance index: IC50(A549/DDP)/IC50(A549))” value in data set [4] is 1.29. The “SI (Selectivity index: IC50(BEAS-2B)/IC50(A549))” value in data set [7] is on record as greater than 4.0.

For `COc1ccc2c(c1)C(=NO)C(=O)N2CCCOC1O[C@@H]2O[C@@]3(C)CC[C@H]4[C@H](C)CC[C@@H]([C@H]1C)[C@@]24OO3` (stereo partly drawn) [6i, 3-(hydroxyimino)-5-methoxy-1-(3-(((3R,5aS,6R,8aS,9R,12R,12aR)-3,6,9-trimethyldecahydro-12H-3,12-epoxy[1,2]dioxepino[4,3-i]isochromen-10-yl)oxy)propyl)indolin-2-one], the IC50 in [1] is 73.5 µM; in [4], 60.2 µM; with A549 lung cancer cells, 51.6 µM; in the data set “in vitro”, greater than 100 µM. Also, the “RI2 (Resistance index: IC50(A549/DDP)/IC50(A549))” value in data set [4] amounted to 1.17. In data set [7], the “SI (Selectivity index: IC50(BEAS-2B)/IC50(A549))” value was greater than 1.9.
